These are literature values, as cited in US20250074868A1, “POLYHYDROXYLATED PHOTOINITIATORS” (Arkema France, priority 2021, published 2025).

As to `CC(C)(O)C(=O)c1ccc(OCCO)cc1` [SpeedCure 2959], the water solubility is given as 0.5 wt %.
